# Assay results reported in patent US5543410A, “Pharmacological use of phthaloylhydrazide derivatives; combination and application thereof” (L.I.M.A.D. Limited, priority 1993, dated 1996).
# Tested on: toxins
smiles,measurement,setting,value
Nc1cccc2c(=O)[nH][nH]c(=O)c12,time to therapeutic effect,"after administration, acute phase",twenty to thirty
same,injections sufficient for complete elimination of pathological indications,within a one-day period,one or two
